Molecular target: T1, Vitamin D3 receptor (Homo sapiens, UniProt P11473)
T1 sequence (P11473 whole entry): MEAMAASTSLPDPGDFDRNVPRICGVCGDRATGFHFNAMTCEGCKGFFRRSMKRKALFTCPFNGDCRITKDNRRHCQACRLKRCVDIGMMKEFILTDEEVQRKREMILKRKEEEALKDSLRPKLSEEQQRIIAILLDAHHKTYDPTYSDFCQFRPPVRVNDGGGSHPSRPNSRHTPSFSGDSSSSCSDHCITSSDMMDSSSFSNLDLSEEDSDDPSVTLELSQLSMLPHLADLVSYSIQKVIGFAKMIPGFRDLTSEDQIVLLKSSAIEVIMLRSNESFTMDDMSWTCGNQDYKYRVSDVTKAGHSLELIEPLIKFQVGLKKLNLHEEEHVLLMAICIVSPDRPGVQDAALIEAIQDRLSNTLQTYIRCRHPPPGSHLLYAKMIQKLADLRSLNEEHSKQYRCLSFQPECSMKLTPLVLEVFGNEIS
Assay: Binding affinity to full length human VDR by Competitive binding assay

- IC50: 4.6 nM
SMILES: C=C1/C(=C\C=C(/C)c2cccc(CCC#CCC(O)(C(F)(F)F)C(F)(F)F)c2)C[C@@H](O)C[C@@H]1O

— BindingDB's records for doi:10.1021/acs.jmedchem.3c01371 (University of Santiago De Compostela, 2023)
